Experimental data reported in the supplement of paper PMC10307832.

Key:
Assay in all cases: relative viability (nuclei count vs DMSO), 5 days (fraction); higher = more cells survive
[1] = compound: C=CCn1c(=O)c2cnc(Nc3ccc(N4CCN(C)CC4)cc3)nc2n1-c1cccc(C(C)(C)O)n1 [Adavosertib] + CCNC(=O)c1noc(-c2cc(C(C)C)c(O)cc2O)c1-c1ccc(CN2CCOCC2)cc1 [Luminespib] (partner 0.01 µM)
Procedure, shortened: (§1)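 After 5 days of treatment, lung cancer cells in 1536-well plates were fixed and stained in a single step (final 0.05% Triton X-100, 1% formaldehyde, 1 ug/ml Hoechst) and their nuclei counted on 4× images. Treatment had been applied by pin tool the day after seeding as one drug alone or as a fixed anchor-drug dose with five library-drug doses (not always all listed) in √10 steps. Relative viability is the nuclei count of treated wells divided by that of vehicle wells, and values are medians of duplicate plates.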

[2] = compound: C=CCn1c(=O)c2cnc(Nc3ccc(N4CCN(C)CC4)cc3)nc2n1-c1cccc(C(C)(C)O)n1 [Adavosertib] + O=C(c1cc(Cc2n[nH]c(=O)c3ccccc23)ccc1F)N1CCN(C(=O)C2CC2)CC1 [Olaparib] (partner 8 µM)
Procedure, shortened: as §1

[3] = compound: COc1nc(N)nc2c1ncn2[C@@H]1O[C@H](CO)[C@@H](O)[C@@H]1O [Nelarabine] + CS(=O)(=O)N1CCN(Cc2cc3nc(-c4cccc5[nH]ncc45)nc(N4CCOCC4)c3s2)CC1 [Pictilisib] (partner 1 µM)
Procedure, shortened: as §1

[4] = compound: COc1nc(N)nc2c1ncn2[C@@H]1O[C@H](CO)[C@@H](O)[C@@H]1O [Nelarabine] + NC(=O)Nc1cc(-c2cccc(F)c2)sc1C(=O)N[C@H]1CCCNC1 [AZD7762] (partner 0.2 µM)
Procedure, shortened: as §1

Cell Line	relative viability ([1]; first compound 0.01 µM)	relative viability ([1]; first compound 0.03162 µM)	relative viability ([1]; first compound 0.1 µM)	relative viability ([1]; first compound 0.3162 µM)	relative viability ([2]; first compound 0.01 µM)	relative viability ([2]; first compound 0.03162 µM)	relative viability ([2]; first compound 0.1 µM)	relative viability ([2]; first compound 0.3162 µM)	relative viability ([3]; first compound 0.01 µM)	relative viability ([3]; first compound 0.03162 µM)	relative viability ([3]; first compound 0.1 µM)	relative viability ([3]; first compound 0.3162 µM)	relative viability ([3]; first compound 1 µM)	relative viability ([4]; first compound 0.01 µM)	relative viability ([4]; first compound 0.03162 µM)	relative viability ([4]; first compound 0.1 µM)	relative viability ([4]; first compound 0.3162 µM)	relative viability ([4]; first compound 1 µM)
NCI-H1915	0.912	0.729	0.752	0.617	0.258	0.277	0.264	0.269	1.08	0.939	1.04	0.959	1.01	0.747	0.728	0.687	0.704	0.733
ABC-1	0.799	0.357	0.584	0.364	0.942	0.779	1.02	0.664	0.901	0.828	0.584	1.01	0.756		0.839	0.766	0.845	0.78
NCI-H358	0.28	0.307	0.454	0.359	0.563	0.517	0.416	0.329	0.374	0.3	0.294	0.362	0.328	0.605	0.395	0.386	0.501	0.586
HCC-366					0.356	0.376	0.317	0.32	0.165	0.122	0.152	0.196	0.132	0.371	0.217	0.228	0.411	0.287
EBC-1					0.624	0.765	0.83	0.647	0.372	0.284	0.407	0.329	0.461					
NCI-H1650	0.2	0.207	0.213	0.145	0.714	0.708	0.76	0.622	0.742	0.666	0.476	0.559	0.591					
NCI-H1395	0.836	0.741	0.734	0.424	0.561	0.547	0.409	0.438	0.729	0.646	0.659	0.694	0.618	0.386	0.419	0.388	0.406	0.39
SW 900		0.195	0.169	0.156	0.722	0.851	0.779	0.399						0.636	0.569	0.556	0.645	0.535
NCI-H1666	0.977	0.946	0.994	1.02	0.774	0.754	0.745	0.738	0.524	0.419	0.371	0.409	0.551	0.844	0.877	0.819	0.84	0.795
COR-L23	0.614	0.61	0.667	0.232	0.339	0.34	0.227	0.163	1.13	0.635	0.738	0.934	0.864					
ChaGo-K-1	0.502	0.683	0.489	0.719	0.434	0.39	0.405	0.32	0.699	0.611	0.934	0.678	0.743	1	0.715	0.871	0.985	0.821
SW 1573	0.177	0.226	0.192	0.198	0.507	0.564	0.663	0.372	0.68	0.53	0.535	0.485	0.639					
NCI-H23	0.217	0.252	0.233	0.21	0.339	0.317	0.24	0.138	0.494	0.499	0.528	0.459	0.51	0.205	0.227	0.241	0.232	0.25
NCI-H1299					0.953	0.959	1.04	0.357	1.06	0.899	0.857	0.861	0.757					
NCI-H1944	0.696	0.715	0.655	0.575	0.41	0.384	0.393	0.403	0.369	0.322	0.339	0.399	0.366	0.534	0.4	0.421	0.44	0.485
PC-3 [JPC-3]	0.665	0.746	0.657	0.724		1.09	1.2	1.14	0.599	0.853	0.7	0.895	0.749	0.9	0.764	0.761	0.957	0.792
NCI-H2126	0.831	0.832	0.897	0.93	0.909	0.939	0.915	0.919	0.517	0.48	0.453	0.483	0.5	1.02	1.07	1.05	1.04	0.997
HCC-827	0.598	0.774	0.42	0.667	0.627	0.707	0.709	0.655	0.956	0.863	0.931	0.814	0.76	0.203	0.208	0.158	0.175	0.163
H3255	0.801	1.03	0.937	0.95	0.604	0.522	0.667	0.583	0.534	0.494	0.456	0.394	0.477	0.835	0.933	0.938	0.854	0.95
NCI-H838	0.293	0.302	0.313	0.284	0.784	0.805	0.804	0.613	0.481	0.331	0.428	0.474	0.438	1.04	0.847	0.955	1	0.957
NCI-H1734	0.234	0.241	0.184	0.191	0.584	0.613	0.562	0.352	0.561	0.538	0.516	0.479	0.452	0.699	0.5	0.484	0.603	0.531
HCC-44	0.982	1.01	0.968	1.3	1	0.943	1.02	1.02	0.708	0.829	0.569	0.597	0.529	1.01	0.951	1.05	0.999	0.955
HOP-62	0.997	0.906	0.909	0.945	0.429	0.3	0.663	0.254	0.833	0.743	0.815	0.574	0.706	0.684	0.396	0.602	0.798	0.48

Cell Line	relative viability ([1]; first compound 0.01 µM)	relative viability ([1]; first compound 0.03162 µM)	relative viability ([1]; first compound 0.1 µM)	relative viability ([1]; first compound 0.3162 µM)	relative viability ([2]; first compound 0.01 µM)	relative viability ([2]; first compound 0.03162 µM)	relative viability ([2]; first compound 0.1 µM)	relative viability ([2]; first compound 0.3162 µM)	relative viability ([3]; first compound 0.01 µM)	relative viability ([3]; first compound 0.03162 µM)	relative viability ([3]; first compound 0.1 µM)	relative viability ([3]; first compound 0.3162 µM)	relative viability ([3]; first compound 1 µM)	relative viability ([4]; first compound 0.01 µM)	relative viability ([4]; first compound 0.03162 µM)	relative viability ([4]; first compound 0.1 µM)	relative viability ([4]; first compound 0.3162 µM)	relative viability ([4]; first compound 1 µM)
NCI-H3122	0.0987	0.0823	0.12	0.0969	0.662	0.611	0.549	0.575	0.588	0.388		0.63	0.611	1.24	0.769		0.998	0.969
NCI-H2405	0.556	0.805	0.773	0.69		0.865	0.907	0.898	0.532	0.464	0.382	0.49	0.492	0.837	0.647	0.71	0.736	0.81
UMC-11	1.02	0.936	1.15	1	0.411	0.429	0.452	1.03	1.05	0.729	0.874	1.02	0.898					
COR-L 105	1.03	0.698	0.962	0.774	0.657	0.689	0.76	0.65	0.341	0.4	0.352	0.424	0.39					
NCI-H2085	0.61	0.411	0.46	0.35	0.831	0.753	0.829	0.759	0.462	0.372	0.536	0.46	0.455	1.11	1.04	0.996	1.12	0.987
IA-LM					0.809	0.82	0.872	0.775	0.369	0.343	0.22	0.259	0.328					
NCI-H2009	1.01	1.07	1.06	0.888	0.686	0.739	0.802	0.777	1.31	0.917	0.841	1.03	0.93					
NCI-H2023	0.8	0.771	0.441	0.31	0.496	0.432	0.338	0.168	0.309	0.316	0.176	0.216	0.252					
NCI-H1703					0.507	0.545	0.387	0.141	0.248		0.237	0.211	0.227	0.17	0.0897	0.132	0.131	0.104
NCI-H520	0.227	0.214	0.243	0.213	0.345	0.332	0.308	0.332	0.387	0.256	0.345	0.322	0.314					
SK-LU-1	0.19	0.201	0.249	0.169	0.498	0.461	0.389	0.249	0.684	0.396	0.546	0.606	0.613					
Calu-6					0.629	0.552	0.523	0.216	1.15	0.856	0.977	0.891	0.962					
NCI-H1648					0.953	0.966	1.39	0.769							0.597		0.638	0.664
NCI-H1623	0.354	0.492	0.453	0.468														
NCI-H1563	0.562	0.544	0.507	0.473					0.605	0.634	0.641	0.67	0.626					
NCI-H522		1.04	1.24	1.2	0.724	0.644	0.647	0.734						0.844	1.02	0.813	0.86	0.949
SK-MES-1	0.604	0.723	0.559	0.236	0.748	0.805	0.379	0.233	0.34	0.318	0.331	0.358	0.373					
NCI-H2342	0.636	0.676	0.788	0.784	0.497	0.561	0.492	0.524						0.508	0.5	0.439	0.555	0.464
HCC-78					0.966	0.807	0.83	0.835	0.156	0.215		0.261	0.231	0.708	0.673		0.764	0.564
NCI-H2228	0.186	0.159	0.132	0.134		0.749	0.519	0.27	0.275	0.235		0.452	0.268					
A549					0.356	0.336	0.446	0.438	0.729	0.546	0.499	0.577	0.463					
NCI-H661	0.898	0.924	1.06	0.557	0.779	0.828	0.721	0.449	0.345	0.362	0.462	0.388	0.354					
